Results on 1 molecule are retold here after patent US5703056A, “Non-invasive imaging of gene transfer” (priority 1995, dated 1997).

For series [1] the following is noted: cited from earlier work.
Series [2] can be described thus: Quantitative autoradiography of 2-[14C]-FIAU after in vivo transfection of RG2 tumors by the STK retrovirus. The arrangement: species or system rat. As to conditions: rat, iv, 50 uCi. On the procedure: (§1) Imaging in vivo transfection of RG2 tumors by the STK retrovirus in experimental animals. […] The left hemisphere was inoculated with gp-STK-A2 vector-producer cells only. Ten days after inoculation, animals were injected i.v. with 50 uCi of 2-[^14 C]-FIAU, killed 24 hours later and the brain was processed for QAR and histology. The HSV1-tk transfected tumor was well visualized on the autoradiographic image (FIG. 11B). […] Surrounding normal brain and the area inoculated only with gp-STK-A2 vector-producer cells are poorly or not at all visualized. […] Quantitative analysis yielded mean activities of 0.34±0.24% dose/g for the in vivo transduced RG2(TK+) and 0.028±0.023% dose/g for the gp-STK-A2 vector-producer cell inoculated area prior to rinsing.

The subject of series [3] is in vivo transduced RG2(TK+) tumor. The description is as above. The arrangement: species or system rat. Conditions: 24 h. As for the experimental part:
as §1

The test system of series [4] is RG2TK+ and RG2 tumors. Briefly: Tissue sampling of FIAU- and IUdR-derived radioactivity in i.c. and s.c. RG2TK+ and RG2 tumors. The series is classed as in vivo, rat. Conditions: 24 h, percent dose per gram. As for the experimental part: Animal preparation and tumor inoculation Two male Fisher 344 rats weighing 250±20 g were anesthetized with a gas mixture consisting of 2% Isoflurane, 70% nitrous oxide and 30% oxygen. A 2% lidocaine gel was applied to the ears and the head was fixed with a stereotaxic device. After midline scalp incision, a burr hole was made through the skull 1 mm posterior and 3 mm lateral to the bregma. The tumor cell suspensions were aspirated into a 50 μl gas tight Hamilton syringe (Ga. 25) and attached to a stereotaxic device. The syringe needle was then inserted 6 mm deep into the caudate nucleus and the cell suspension (10^5 cells in 10 μl) was slowly injected over 2 minutes. RG2TK+ cells were injected into the left hemisphere, and RG2 cells were injected into the right hemisphere. Bone wax was applied to cover the skull defect and the scalp was closed with 4.0 silk suture. Subcutaneous inoculations (10^6 cells in 50 μl) were also performed (RG2TK+ cells into the left flank and RG2 cells into the right flank). After the procedure, the animals were marked and placed in standard cages with water and Rodent LabChow #5001 (Purina Mills, Inc.) ad libitum. Comparison of different "marker substrates" for identifying HSV1-TK expression in animals After 10 days of tumor growth, both animals received i.v. injections of [^123 I]-IUdR (400 uCi) and [^14 C]-FIAU (10 uCi). Radioactivity was allowed to clear from the body over 24 hours to reduce tissue background activity, predominantly due to radiolabelled iodide, the major metabolite of [^123 I]-IUdR. [Tjuvajev, J. G., Muraki, A., Ginos, J., Berk, J., Koutcher, J., Ballon, D., Beattie, B., Finn, R., and Biasberg, R., J. Nucl. Med., 34: 1152-62, 1993; Tjuvajev, J. G., Macapinlac, H. A., Daghighian, F., Scott, A. M., ginos, J. Z., Finn, R. D., Kothari, P., Desai, R., Zhang, Z., Beattie, B., Graham, M., Larson, S., and Blasberg, R. G., J. Nucl. Med., 35: 1407-17, 1994] The rats were killed at 24 hours under anesthesia; samples of tumor and adjacent tissue were disected and weighed, blood and plasma were obtained, and radioactivity was measured. Decay corrected ^123 I-radioactivity was assayed in a Packard AutoGamma 5550 Spectrometer; samples were stored in a refrigerator for 1 week to allow for ^123 I decay (>12 half lives) and ^14 C-radioactivity was measured in a Packard B1600 TriCarb beta spectrometer using external standard quench correction. Sample radioactivity was expressed as a percent of administered dose per gram of tissue of per unit volume of fluid.

The subject of series [5] is RG2TK+ and RG2 tumors. The experiment in a line: Quantitative autoradiography of 2-[14C]-FIAU in i.c. RG2TK+ and RG2 tumors. In kind it is in vivo, rat. Conditions: for Sensitivity* Δ(substrate % dose/g)/Δ(HSV1TK mRNA/S28 RNA IOD): autoradiographic data. As for the experimental part:
(§2) Two rats were prepared with i.c. RG2TK+ and RG2 tumors as described above. […] The brain was rapidly extracted and frozen in preparation for cryosectioning and quantitative autoradiography (QAR). [Blasberg, Seminars in Neurology] […] To convert the x-ray images to tissue radioactivity (nCi/g), the optical density of the standards was measured by computerized image analysis. A standard curve that relates mean optical density and tissue radioactivity was generated for each film. […]

Test in series [6]: as above
In kind it is in vivo, rat. As to conditions: rat, iv, 50 uCi. On the procedure: as §2

A further series addresses HSV1-TK (Human alphaherpesvirus 1 strain 17, UniProt P0DTH5). The experiment in a line: Accumulation of radiolabelled marker substrates in RG2TK+ transduced and RG2 wild-type cells, normalized to TdR. The series is classed as cell-based, herpes simplex virus. As for the experimental part: Source of radiolabelled "marker substrates". […] No carrier-added 5-[^123 I]-deoxyuridine (IUdR) was prepared by reacting 2-deoxyuridine (UdR) with carrier-free ^123 I-labelled sodium iodide in an iodogen coated reaction vial.
Comparison of "marker substrates" for identifying HSV1-tk gene expression in tissue culture. […] Each of these substrates were developed for or used as an anti-viral agent; they are phosphorylated by HSV1-TK and can be radiolabelled for noninvasive imaging.
Wild-type (nontransduced) RG2 cells were studied as a reference control. […] The cells were dislodged from the Petri dishes with a soft scraper, poured into 15 ml conical tubes, centrifuged and the medium aspirated. The tubes were cut to facilitate removing cells; they were blotted, placed in pre-weighed vials, weighed and prepared for counting. Samples were assayed for ^3 H- and ^14 C-radioactivity using a Packard B1600 TriCarb beta spectrometer using dual-channel and external standard splash and quench correction techniques. The medium was also counted before and following incubation. The data was expressed as a harvested cell-to-medium concentration ratio (dpm/g cells.div.dpm/ml medium).
Data analysis. […] These two related measures are useful to evaluate the intensity of the images (e.g., high "sensitivity") and the ability to differentiate between HSV1-TK and endogenous-TK in the images (e.g., high "selectivity"). The "selectivity" measure is not interpreted as a relative sensitivity (i.e., a value of 1 indicating equal sensitivity) of the substrate to HSV1-TK vs. endogenous-TK. […] They are intended for the direct comparison of substrates only.

Sequence of HSV1-TK (P0DTH5 whole entry): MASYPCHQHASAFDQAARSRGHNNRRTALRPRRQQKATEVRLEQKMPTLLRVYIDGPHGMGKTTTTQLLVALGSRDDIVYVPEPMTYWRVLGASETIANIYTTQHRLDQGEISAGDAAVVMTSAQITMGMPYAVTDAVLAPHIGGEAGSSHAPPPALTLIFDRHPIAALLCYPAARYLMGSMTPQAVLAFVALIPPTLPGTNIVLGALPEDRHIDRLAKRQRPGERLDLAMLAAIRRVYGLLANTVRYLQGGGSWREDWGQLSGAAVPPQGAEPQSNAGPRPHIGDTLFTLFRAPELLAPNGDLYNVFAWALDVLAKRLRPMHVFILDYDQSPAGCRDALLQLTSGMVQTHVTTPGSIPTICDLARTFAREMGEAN

Consider `O=c1[nH]c(=O)n([C@@H]2O[C@H](CO)[C@@H](O)[C@@H]2F)cc1I` [FIAU, 2'-fluoro-5-iodo-1-β-D-arabinofuranosyl-uracil], for which the “organ damage in clinical trial” value in series [1] (human, in vivo) was “severe liver and pancreatic damage”. Further, in series [1] (pharmacologic doses), the dose-limiting toxicity entry is “dose-limiting gastrointestinal, hematologic and neurotoxicity”. The tissue uptake at 24 h was 0.028 ± 0.023 %ID/g in series [2] (gp-STK-A2 vector-producer cell inoculated area, prior to rinsing, read-out: mean activity); 0.34 ± 0.24 %ID/g in series [2] (in vivo transduced RG2(TK+) tumor, prior to rinsing, read-out: mean activity); 0.96 %ID/g in series [2] (in vivo transduced RG2(TK+) tumor, read-out: peak activity); < 0.005 %ID/g in series [6] (brain, 24 h, level of detection on the autoradiograms, read-out: adjacent brain activity); 0.43 %ID/g in series [6] (i.c. rg2tk+ tumor, i.c. RG2TK+ tumor, 24 h, read-out: peak activity); 0.18 ± 0.14 %ID/g in series [6] (intracerebral tumor, i.c. RG2TK+ tumor, 24 h after 50 uCi 2-[14C]-FIAU i.v., read-out: mean activity). Further, the adjacent brain activity result in series [3] (level of detection on the autoradiograms) is reported as “below the level of detection”. Moreover, the peak activity in series [3] (in vivo transduced RG2(TK+) tumor) is listed as 0.96 % dose/g; in the series on RG2TK+ and RG2 tumors [5] (i.c. RG2TK+ tumor, 24 h) it was 0.43 % dose/g. Moreover, the “Sensitivity* (uptake in RG2TK+ tumor - uptake in RG2 tumor)/(HSV1TK mRNA/S28 RNA IOD in RG2TK+ cells)” value with RG2TK+ and RG2 tumors [4] (RG2TK+/RG2 i.c. tumors) came to 0.0025; in the series with RG2TK+ and RG2 tumors [4] (RG2TK+/RG2 s.c. tumors), 0.0150. In addition, in the series with RG2TK+ and RG2 tumors [5] (4 hours after tracer, RG2TK#16 vs RG2 i.c., non-rinsed autoradiogram), the “difference in radioactivity localized to transduced compared to non-transduced tumor” value is given as “only a small difference”. The “Sensitivity* Δ(substrate % dose/g)/Δ(HSV1TK mRNA/S28 RNA IOD)” value with RG2TK+ and RG2 tumors [5] (RG2TK#16/RG2 i.c. tumors) is listed as 0.0058; in the series with RG2TK+ and RG2 tumors [5] (RG2TK+/RG2 i.c. tumors), 0.0039. Moreover, the “Sensitivity* Δ(substrate/TdR)/Δ(HSV1TK mRNA/S28 RNA IOD)” value at HSV1-TK (Data from FIG. 5) is 0.0090; at HSV1-TK (Data from FIG. 7B (different RG2TK cell lines)), 0.0086.
